Seven compounds from patent US6667335B2, “Imidazole derivatives” (Hoffmann-La Roche Inc., priority 2001, dated 2003) can be followed below.

Where only a bound is given, the exact number is not on record here.

Data set [1] has as its target T1, NMDA-receptor subtype 2B (Rattus norvegicus, UniProt P35439+Q00960).
T1 construct: Membranes were prepared by homogenization of the whole brain minus cerebellum and medulla oblongata; from tissue; host or cells: rat whole brain minus cerebellum and medulla oblongata, membrane preparation
In words: 3H-Ro 25-6981 binding (displacement) on rat brain membranes. The note with it: displacement of 5 nM 3H-Ro 25-6981, rat whole brain membranes (minus cerebellum and medulla oblongata), 2 hours at 4° C.

T1 sequence (Q00960 27-1482, other chains not shown): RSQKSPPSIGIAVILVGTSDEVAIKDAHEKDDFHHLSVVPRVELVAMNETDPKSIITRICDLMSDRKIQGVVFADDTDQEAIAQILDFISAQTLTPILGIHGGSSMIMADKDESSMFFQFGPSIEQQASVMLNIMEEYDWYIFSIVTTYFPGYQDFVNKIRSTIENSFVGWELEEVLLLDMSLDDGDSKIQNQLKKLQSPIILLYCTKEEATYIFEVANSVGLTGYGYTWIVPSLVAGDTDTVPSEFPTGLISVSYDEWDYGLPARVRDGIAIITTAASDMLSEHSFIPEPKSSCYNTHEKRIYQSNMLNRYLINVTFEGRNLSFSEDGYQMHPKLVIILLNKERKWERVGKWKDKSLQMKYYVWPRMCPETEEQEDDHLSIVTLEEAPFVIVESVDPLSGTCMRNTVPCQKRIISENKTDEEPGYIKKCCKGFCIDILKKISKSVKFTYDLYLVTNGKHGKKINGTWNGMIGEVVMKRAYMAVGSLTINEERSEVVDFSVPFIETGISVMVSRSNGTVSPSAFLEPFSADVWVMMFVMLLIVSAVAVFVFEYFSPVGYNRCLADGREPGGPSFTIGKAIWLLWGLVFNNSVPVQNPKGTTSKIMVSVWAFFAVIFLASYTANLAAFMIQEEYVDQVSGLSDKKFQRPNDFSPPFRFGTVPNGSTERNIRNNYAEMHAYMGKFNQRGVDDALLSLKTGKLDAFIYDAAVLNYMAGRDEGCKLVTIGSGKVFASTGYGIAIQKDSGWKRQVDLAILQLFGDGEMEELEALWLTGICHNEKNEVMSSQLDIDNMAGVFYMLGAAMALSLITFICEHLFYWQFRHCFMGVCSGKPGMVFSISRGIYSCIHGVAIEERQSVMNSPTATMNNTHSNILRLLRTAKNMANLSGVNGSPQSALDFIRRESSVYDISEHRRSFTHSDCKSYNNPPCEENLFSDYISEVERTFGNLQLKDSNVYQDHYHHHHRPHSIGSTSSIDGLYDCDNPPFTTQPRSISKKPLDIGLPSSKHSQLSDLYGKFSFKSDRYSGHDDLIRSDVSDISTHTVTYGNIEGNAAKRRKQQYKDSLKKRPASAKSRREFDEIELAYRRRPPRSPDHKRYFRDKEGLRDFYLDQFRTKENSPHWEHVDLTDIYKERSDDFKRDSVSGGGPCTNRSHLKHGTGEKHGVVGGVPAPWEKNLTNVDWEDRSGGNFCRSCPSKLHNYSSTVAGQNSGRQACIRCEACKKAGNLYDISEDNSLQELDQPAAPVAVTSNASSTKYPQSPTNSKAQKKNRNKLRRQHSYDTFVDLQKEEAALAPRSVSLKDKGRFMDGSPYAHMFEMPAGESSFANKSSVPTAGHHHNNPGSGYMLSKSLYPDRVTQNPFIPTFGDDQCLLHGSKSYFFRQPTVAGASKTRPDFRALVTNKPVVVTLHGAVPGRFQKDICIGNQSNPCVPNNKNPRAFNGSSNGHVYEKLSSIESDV

Take `Cc1nccn1Cc1cn(-c2cccc(C(C)(C)C)c2)cn1.Cl.Cl` [Example 183, 1H-Imidazole, 1-[[1-(3-tert-Butylphenyl)-1H-imidazol-4-yl]methyl]-2-methyl-, Hydrochloride (1:2)]: the melting point is > 200 °C (dec.). The IC50 in data set [1] is 52 nM.
`Cc1nccn1Cc1cn(-c2ccc(OC(F)(F)F)c(Cl)c2)cn1.Cl.Cl` [Example 186, 1H-Imidazole, 1-[[1-[3-Chloro-4(trifluoromethoxy)phenyl]-1H-imidazol-4-yl]methyl]-2-methyl-, Hydrochloride (1:2)] displayed a melting point of 221 to 222 °C. Moreover, in data set [1], the concentration for half-maximal inhibition (IC50) stood at 52 nM.
Compound `CCc1nccn1Cc1cn(-c2cccc(OC(F)F)c2)cn1.Cl.Cl` [Example 189, 1H-Imidazole, 1-[[1-[3-(Difluoromethoxy)phenyl]-1H-imidazol-4-yl]methyl]-2-ethyl-, Hydrochloride (1:2)] gave a melting point of 216 to 217 °C. This compound also returned a concentration for half-maximal inhibition (IC50) in data set [1] of 53 nM.
The compound `Cc1nccn1Cc1cn(-c2cccc(Br)c2)cn1.Cl.Cl` [Example 192, 1H-Imidazole, 1-[[1-(3-Bromophenyl)-1H-imidazol-4-yl]methyl]-2-methyl-, Hydrochloride (1:2)] showed a melting point of 205 to 207 °C. In addition, the IC50 in data set [1] turned out to be 55 nM.
For `Cc1nccn1Cc1cn(-c2cccc(C(F)F)c2)cn1.Cl.Cl` [Example 194, 1H-Imidazole, 1-[[1-[3-(Difluoromethyl)phenyl]-1H-imidazol-4-yl]methyl]-2-methyl-, Hydrochloride (1:2)], the melting point was in the range of 195 to 196 °C. This compound registered a 50% inhibitory concentration (IC50) in data set [1] of 79 nM.
In the case of `CCc1nccn1Cc1cn(-c2cc(F)cc(Br)c2)cn1.Cl.Cl` [Example 199, 1H-Imidazole, 1-[[1-(3-Bromo-5-fluorophenyl)-1H-imidazol-4-yl]methyl]-2-ethyl-, Hydrochloride (1:2)], the melting point is > 200 °C (dec.). This compound also displayed an IC50 in data set [1] of 98 nM.
The like results for `Cl.Cl.Nc1nccn1Cc1cn(-c2ccc3c(c2)OCO3)cn1` [Example 224, 1-(1-Benzo[1,3]dioxol-5-yl-1H-imidazol-4-ylmethyl)-1H-imidazol-2-ylamine Hydrochloride (1:2)] were, in that order, > 245 °C (dec.) and 10 nM.

Broadly, the IC50 is the concentration needed to halve the response being measured. A lower IC50 goes with greater potency in that assay. What is called melting point is the temperature, or range, at which the solid turns liquid.
